Experiments:
TYK2 (JH1) = target: T1, TYK2 (JH1) (Homo sapiens, UniProt P29597); test: TYK2 enzyme assay, HTRF detection; format: biochemical
T1 construct: TYK2 (JH1)
Description: JAK1, JAK2, JAK3, and TYK2 kinase activity assays were performed as described previously using HTRF detection technology and the peptide substrate amino hexanoyl biotin-EQEDEPEGDYFEWLE-NH2. Each reaction was incubated between 60 and 80 min at room temperature. Final conditions were as follows: JAK1, 400 pM enzyme, Hepes pH 7.5, 10 mM MgCl2, 0.01% Brij-35, 1 mM EGTA, 0.1 mg/ml BSA), 2 mM DTT, 2 µM peptide substrate, 25 µM MgATP, 5% DMSO and the desired concentration of subject compound; JAK2, 25 pM enzyme (JH1, JH1–JH2^wt, JH1–JH2^V617F domains), 2 µM peptide substrate, 15 µM MgATP, 5 mM MgCl2, 100 mM NaCl, 2 mM DTT, 0.1 mg/ml BSA, 50 mM Tris (pH 7.4), 5% DMSO and the desired concentration of subject compound; JAK3, 250 pM enzyme, 50 mM Hepes pH 7.5, 10 mM MgCl2, 0.01% Brij-35, 1 mM EGTA, 0.1 mg/ml BSA), 2 mM DTT, 2.0 µM peptide substrate, 25 µM MgATP, 5% DMSO, and the desired concentration of subject compound; TYK2, 125 pM enzyme, 50 mM Hepes pH 7.5, 10 mM MgCl2, 0.01% Brij-35, 1 mM EGTA, 0.1 mg/ml BSA, 2 mM DTT, 2.0 µM peptide substrate, 15 µM MgATP, 5% DMSO and the desired concentration of subject compound.

ACK1 = test: Kinase profiling (Millipore); format: biochemical; settings: IC50s measured at ATP Km, fold increase relative to JAK2
Description: (§1) Kinase profiling was conducted by Millipore (Billerica, MA).
(§2) Supplementary file pone.0037207.s003.doc: Table S1 Recombinant Kinase Selectivity Profile of MRLB-11055. IC50s measured at ATP Km, and fold increase relative to JAK2 is reported. (DOC) Click here for additional data file.

ARK5 = test: Kinase profiling (Millipore); format: biochemical; settings: IC50s measured at ATP Km, fold increase relative to JAK2
Description: as §1, §2

Arg = test: Kinase profiling (Millipore); format: biochemical; settings: IC50s measured at ATP Km, fold increase relative to JAK2
Description: as §1, §2

BTK = test: Kinase profiling (Millipore); format: biochemical; settings: IC50s measured at ATP Km, fold increase relative to JAK2
Description: as §1, §2

Bmx = test: Kinase profiling (Millipore); format: biochemical; settings: IC50s measured at ATP Km, fold increase relative to JAK2
Description: as §1, §2

CaMKIIγ = test: Kinase profiling (Millipore); format: biochemical; settings: IC50s measured at ATP Km, fold increase relative to JAK2
Description: as §1, §2

CaMKIIδ = test: Kinase profiling (Millipore); format: biochemical; settings: IC50s measured at ATP Km, fold increase relative to JAK2
Description: as §1, §2

Fgr = test: Kinase profiling (Millipore); format: biochemical; settings: IC50s measured at ATP Km, fold increase relative to JAK2
Description: as §1, §2

Flt3 = test: Kinase profiling (Millipore); format: biochemical; settings: IC50s measured at ATP Km, fold increase relative to JAK2
Description: as §1, §2

Fms = test: Kinase profiling (Millipore); format: biochemical; settings: IC50s measured at ATP Km, fold increase relative to JAK2
Description: as §1, §2

Fyn = test: Kinase profiling (Millipore); format: biochemical; settings: IC50s measured at ATP Km, fold increase relative to JAK2
Description: as §1, §2

Hck = test: Kinase profiling (Millipore); format: biochemical; settings: IC50s measured at ATP Km, fold increase relative to JAK2
Description: as §1, §2

Lck = test: Kinase profiling (Millipore); format: biochemical; settings: IC50s measured at ATP Km, fold increase relative to JAK2
Description: as §1, §2

Lyn = test: Kinase profiling (Millipore); format: biochemical; settings: IC50s measured at ATP Km, fold increase relative to JAK2
Description: as §1, §2

MLK1 = test: Kinase profiling (Millipore); format: biochemical; settings: IC50s measured at ATP Km, fold increase relative to JAK2
Description: as §1, §2

PRK2 = test: Kinase profiling (Millipore); format: biochemical; settings: IC50s measured at ATP Km, fold increase relative to JAK2
Description: as §1, §2

PTK5 = test: Kinase profiling (Millipore); format: biochemical; settings: IC50s measured at ATP Km, fold increase relative to JAK2
Description: as §1, §2

Ret = test: Kinase profiling (Millipore); format: biochemical; settings: IC50s measured at ATP Km, fold increase relative to JAK2
Description: as §1, §2

TrkA = test: Kinase profiling (Millipore); format: biochemical; settings: IC50s measured at ATP Km, fold increase relative to JAK2
Description: as §1, §2

TrkB = test: Kinase profiling (Millipore); format: biochemical; settings: IC50s measured at ATP Km, fold increase relative to JAK2
Description: as §1, §2

Yes = test: Kinase profiling (Millipore); format: biochemical; settings: IC50s measured at ATP Km, fold increase relative to JAK2
Description: as §1, §2

cSRC = test: Kinase profiling (Millipore); format: biochemical; settings: IC50s measured at ATP Km, fold increase relative to JAK2
Description: as §1, §2

pSTAT5 = test: Acute PK/PD: pSTAT5 in peripheral blood of darbepoetin-stimulated mice; format: in vivo, C57BL/6 mice; settings: Mus musculus
Description: C57BL/6 mice (Charles River Laboratories, Wilmington, MA) aged 4–6 weeks were dosed with MRLB-11055 in vehicle (10%v/v polysorbate 80) or with vehicle alone. All dosing was done by oral gavage (10 ml/kg body weight/day). Blood sampling and measurement of pSTAT5 in the blood of darbepoetin-stimulated mice were measured as described previously. The level of MRLB-11055 in the blood of animals was measured by diluting blood samples (10 uL) with citrate buffer (30 uL) and precipitating with acetonitrile (200 uL) containing a structural analog as internal standard. Precipitated samples were filtered, water (200 uL) was added and the sample injected onto a C18 column (Waters Atlantis T3, 2.1 mm x 30 mm). Electrospray ionization with multiple reaction monitoring was used for MS/MS detection.

[1] = tested on: darbepoetin-induced polycythemia and splenomegaly; test: Darbepoetin-induced model of polycythemia; format: in vivo, C57BL/6 mice; settings: 7 days
Description: C57BL/6 mice (Charles River Laboratories, Wilmington, MA) aged 4–6 weeks were dosed with MRLB-11055 in vehicle (10%v/v polysorbate 80) or with vehicle alone. All dosing was done by oral gavage (10 ml/kg body weight/day). Inhibition of darbepoetin-induced polycythemia and splenomegaly by MRLB-11055 was measured as described previously.

T1 sequence (P29597 897-1176 limits assumed, species assumed): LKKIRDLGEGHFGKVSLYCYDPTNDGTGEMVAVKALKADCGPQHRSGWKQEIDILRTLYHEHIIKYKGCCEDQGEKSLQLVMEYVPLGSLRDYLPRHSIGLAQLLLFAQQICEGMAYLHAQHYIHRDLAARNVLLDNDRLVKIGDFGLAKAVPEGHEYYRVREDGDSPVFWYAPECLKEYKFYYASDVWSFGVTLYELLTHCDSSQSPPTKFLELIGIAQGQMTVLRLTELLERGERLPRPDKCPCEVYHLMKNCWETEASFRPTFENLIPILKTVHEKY

NC(=O)c1cnc(N[C@H](C2CC2)C(F)(F)F)c2c1[nH]c1cc(-c3cnc(N)nc3)ccc12 [MRLB-11055]
IC50 (TYK2 (JH1); HTRF, mean, n = 3, read-out: IC50, cell-free TYK2 (JH1)): 0.18 nM | Selectivity for JAK2 over Tyk2 (TYK2 (JH1); cell-free assays): 2 fold | Fold-Shift /JAK2, ACK1 (ACK1): 2 fold | Fold-Shift /JAK2, ARK5 (ARK5): 6 fold | Fold-Shift /JAK2, Arg (Arg): 17 fold | Fold-Shift /JAK2, BTK (BTK): 7 fold | Fold-Shift /JAK2, Bmx (Bmx): 4 fold | Fold-Shift /JAK2, CaMKIIγ (CaMKIIγ): 11 fold | Fold-Shift /JAK2, CaMKIIδ (CaMKIIδ): 10 fold | Fold-Shift /JAK2, Fgr (Fgr): 5 fold | Fold-Shift /JAK2, Flt3 (Flt3): 3 fold | Fold-Shift /JAK2, Fms (Fms): 2 fold | Fold-Shift /JAK2, Fyn (Fyn): 2 fold | Fold-Shift /JAK2, Hck (Hck): 3 fold | Fold-Shift /JAK2, Lck (Lck): 5 fold | Fold-Shift /JAK2, Lyn (Lyn): 4 fold | Fold-Shift /JAK2, MLK1 (MLK1): 18 fold | Fold-Shift /JAK2, PRK2 (PRK2): 13 fold | Fold-Shift /JAK2, PTK5 (PTK5): 8 fold | Fold-Shift /JAK2, Ret (Ret): 3 fold | Fold-Shift /JAK2, TrkA (TrkA): 1 fold | Fold-Shift /JAK2, TrkB (TrkB): 8 fold | Fold-Shift /JAK2, Yes (Yes): 7 fold | Fold-Shift /JAK2, cSRC (cSRC): 1 fold | inhibition at 36 mg/kg (pSTAT5; 36 mg/kg oral, maintained over 12 hours): > 90% | IC50 (pSTAT5; oral dosing, mice simultaneously injected with darbepoetin, read-out: IC50 for inhibition of pSTAT5 in peripheral blood in vivo): 1200 nM | Effect on WBC ([1]; 5, 15, 25 and 40 mpk once daily): dose-dependent trend towards WBC reduction, that did not reach statistical significance | Efficacy, prevention of elevated hematocrit (Hct) ([1]; 40 mpk orally once daily): 76% | Efficacy, prevention of elevated spleen weight (SPL) ([1]; 40 mpk orally once daily): 87%

From PMC3356383, “Efficacious Intermittent Dosing of a Novel JAK2 Inhibitor in Mouse Models of Polycythemia Vera” (PLoS ONE, 2012)
